Like-named read-outs stand apart in the source and are kept apart here.
System: primary rat mixed cortical cells
Assay: In vitro myelination assay (MBP positive myelin strands, fold myelin pixels above background)
Type: cell-based
Conditions: Rattus norvegicus; for fold induction at 1 µM: 1.0 μM compound; for fold induction at 10 µM: 10.0 μM compound
Procedure, shortened: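 Compounds at 1.0 and 10.0 μM were incubated 14 days with dissociated P1 rat cortical cells, which were then fixed and immunostained for MBP. Myelination was scored as fold MBP myelin pixels per well over the no-compound baseline.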

[1] = read-out: Fold myelin pixels above background relative to baseline of no added compound
[2] = relative to baseline of no added compound, read-out: Fold myelin pixels above background
[3] = relative to baseline of no added compound, read-out: Fold myelin pixels above background, 1.0 μM
[4] = relative to baseline of no added compound, read-out: Fold myelin pixels above background, 10.0 μM

COC1(CNc2cc(C)cc(Nc3ncn(-c4cc(F)cc(F)c4)n3)c2)CCC1 [Compound 1029, N1-[1-(3,5-difluorophenyl)-1,2,4-triazol-3-yl]-N3-[(1-methoxycyclobutyl)methyl]-5-methyl-benzene-1,3-diamine]
fold induction at 1 µM [1]: 10 to 100 | fold induction at 10 µM [1]: 10 to 100

CN1CCN(c2cc(Nc3ncn(-c4ccc(F)c(F)c4)n3)cc(C(F)(F)F)c2)CC1 [Compound 412, 1-(3,4-difluorophenyl)-N-[3-(4-methylpiperazin-1-yl)-5-(trifluoromethyl)phenyl]-1,2,4-triazol-3-amine]
fold induction at 1 µM [2]: 1000 to 10000 | fold induction at 10 µM [2]: ≤ 1

Cc1cc(Nc2ncn(-c3cc(F)cc(F)c3)n2)cc(N2CCC(N3CCCC3)CC2)c1 [Compound 1038, 1-(3,5-difluorophenyl)-N-[3-methyl-5-(4-pyrrolidin-1-yl-1-piperidyl)phenyl]-1,2,4-triazol-3-amine]
fold induction at 1 µM [1]: 1 to 10 | fold induction at 10 µM [1]: 10 to 100

CCc1cc(Nc2ncn(-c3cnccn3)n2)cc(N2CCNCC2)c1 [Compound 124, N-(3-ethyl-5-piperazin-1-yl-phenyl)-1-pyrazin-2-yl-1,2,4-triazol-3-amine]
fold induction at 1 µM [3]: 1000 to 10000 | fold induction at 10 µM [4]: ≤ 1

Cc1cc(Nc2ncn(-c3cc(F)cc(F)c3)n2)nc(C2=CCOCC2)c1 [Compound 774, N-[1-(3,5-difluorophenyl)-1,2,4-triazol-3-yl]-6-(3,6-dihydro-2H-pyran-4-yl)-4-methyl-pyridin-2-amine]
fold induction at 1 µM [2]: 1 to 10 | fold induction at 10 µM [2]: 10 to 100

Cc1cc(Nc2ncn(-c3ccccc3)n2)cc(N2CCN3C(=O)OCC3C2)c1 (stereo not shown) [Compound 227, 7-[3-methyl-5-[(1-phenyl-1,2,4-triazol-3-yl)amino]phenyl]-5,6,8,8a-tetrahydro-1H-oxazolo[3,4-a]pyrazin-3-one]
fold induction at 1 µM [3]: 100 to 1000 | fold induction at 10 µM [4]: 10 to 100

Cc1cc(Nc2ncn(-c3ccccc3)n2)cc(C2CN(C3COC3)C2)c1 [Compound 65, N-[3-methyl-5-[1-(oxetan-3-yl)azetidin-3-yl]phenyl]-1-phenyl-1,2,4-triazol-3-amine]
fold induction at 1 µM [3]: 1000 to 10000 | fold induction at 10 µM [4]: 1 to 10

Cc1cc(Nc2ncn(-c3cc(F)cc(F)c3)n2)cc(NC2CCN(C3COC3)C2)c1 (stereo not shown) [Compound 472, N3-[1-(3,5-difluorophenyl)-1,2,4-triazol-3-yl]-5-methyl-N1-[1-(oxetan-3-yl)pyrrolidin-3-yl]benzene-1,3-diamine]
fold induction at 1 µM [2]: 100 to 1000 | fold induction at 10 µM [2]: ≤ 1

Cc1cc(Nc2ncn(-c3cc(F)cc(N4CC[C@@H](F)C4)c3)n2)cc(N2CCN(C3COC3)CC2)c1 [Compound 467, 1-[3-fluoro-5-[(3R)-3-fluoropyrrolidin-1-yl]phenyl]-N-[3-methyl-5-[4-(oxetan-3-yl)piperazin-1-yl]phenyl]-1,2,4-triazol-3-amine]
fold induction at 1 µM [2]: 100 to 1000 | fold induction at 10 µM [2]: 10 to 100

Cc1cc(Nc2ncn(-c3cccc(C(F)(F)F)c3)n2)nc(N2CCOCC2)c1 [Compound 837, 4-methyl-6-morpholino-N-[1-[3-(trifluoromethyl)phenyl]-1,2,4-triazol-3-yl]pyridin-2-amine]
fold induction at 1 µM [1]: 1 to 10 | fold induction at 10 µM [1]: 10 to 100

Cc1cc(Nc2ncn(-c3cc(F)cc(F)c3)n2)cc(NC2(C(=O)N(C)C)CCC2)c1 [Compound 887, 1-[3-[[1-(3,5-difluorophenyl)-1,2,4-triazol-3-yl]amino]-5-methyl-anilino]-N,N-dimethyl-cyclobutanecarboxamide]
fold induction at 1 µM [1]: 10 to 100 | fold induction at 10 µM [1]: 10 to 100

Cc1cc(Nc2ncn(-c3cc(F)cc(F)c3)n2)cc(N2CCN(C(C)(C)C)CC2)c1 [Compound 709, N-[3-(4-tert-butylpiperazin-1-yl)-5-methyl-phenyl]-1-(3,5-difluorophenyl)-1,2,4-triazol-3-amine]
fold induction at 1 µM [2]: 1 to 10 | fold induction at 10 µM [2]: 1 to 10

Cc1cc(Nc2ncn(-c3cc(F)cc(F)c3)n2)cc(N2CC(C3COC3)C2)c1 [Compound 506, 1-(3,5-difluorophenyl)-N-[3-methyl-5-[3-(oxetan-3-yl)azetidin-1-yl]phenyl]-1,2,4-triazol-3-amine]
fold induction at 1 µM [2]: 100 to 1000 | fold induction at 10 µM [2]: 1 to 10

CC(=O)N1CCCC(c2cc(C)cc(Nc3ncn(-c4ccncn4)n3)c2)C1 (stereo not shown) [Compound 449, 1-[3-[3-methyl-5-[(1-pyrimidin-4-yl-1,2,4-triazol-3-yl)amino]phenyl]-1-piperidyl]ethanone]
fold induction at 1 µM [2]: 100 to 1000 | fold induction at 10 µM [2]: ≤ 1

Cc1cc(Nc2ncn(-c3cnccn3)n2)cc(N2CCN(C3CC3)CC2)c1 [Compound 20, N-[3-(4-cyclopropylpiperazin-1-yl)-5-methyl-phenyl]-1-pyrazin-2-yl-1,2,4-triazol-3-amine]
fold induction at 1 µM [3]: 10 to 100 | fold induction at 10 µM [4]: 100 to 1000

CC(=O)OCC(C)(CO)N1CCN(c2cc(C)cc(Nc3ncn(-c4cc(F)cc(F)c4)n3)c2)CC1 (stereo not shown) [Compound 534, [2-[4-[3-[[1-(3,5-difluorophenyl)-1,2,4-triazol-3-yl]amino]-5-methyl-phenyl]piperazin-1-yl]-3-hydroxy-2-methyl-propyl] acetate]
fold induction at 1 µM [2]: 1 to 10 | fold induction at 10 µM [2]: ≤ 1

CCc1cc(Nc2ncn(-c3ccnc(F)c3)n2)cc(N2CCN(C3COC3)CC2)c1 [Compound 16, N-[3-ethyl-5-[4-(oxetan-3-yl)piperazin-1-yl]phenyl]-1-(2-fluoro-4-pyridyl)-1,2,4-triazol-3-amine]
fold induction at 1 µM [3]: 100 to 1000 | fold induction at 10 µM [4]: 10 to 100

Cc1cc(Nc2ncn(-c3ccccc3)n2)cc(NC2CCN(C3COC3)CC2)c1 [Compound 334, 5-methyl-N1-[1-(oxetan-3-yl)-4-piperidyl]-N3-(1-phenyl-1,2,4-triazol-3-yl)benzene-1,3-diamine]
fold induction at 1 µM [3]: 100 to 1000 | fold induction at 10 µM [4]: 1000 to 10000

CCc1cc(Nc2ncn(-c3cccc(C#N)c3)n2)cc(N2CCN(C3COC3)CC2)c1 [Compound 734, 3-[3-[3-ethyl-5-[4-(oxetan-3-yl)piperazin-1-yl]anilino]-1,2,4-triazol-1-yl]benzonitrile]
fold induction at 1 µM [2]: 1 to 10 | fold induction at 10 µM [2]: ≤ 1

[2H]C1([2H])N(C(=O)C2CC2)C([2H])([2H])C([2H])([2H])N(c2cc(Nc3ncn(-c4cc(F)cc(F)c4)n3)cc(C(F)F)c2)C1([2H])[2H] [Compound 1041, cyclopropyl-[2,2,3,3,5,5,6,6-octadeuterio-4-[3-(difluoromethyl)-5-[[1-(3,5-difluorophenyl)-1,2,4-triazol-3-yl]amino]phenyl]piperazin-1-yl]methanone]
fold induction at 1 µM [1]: 1 to 10 | fold induction at 10 µM [1]: 1 to 10

Fc1ccc(-n2cnc(Nc3cc(Cl)nc(N4CCOCC4)c3)n2)cc1F [Compound 100, 2-chloro-N-[1-(3,4-difluorophenyl)-1,2,4-triazol-3-yl]-6-morpholino-pyridin-4-amine]
fold induction at 1 µM [3]: 100 to 1000 | fold induction at 10 µM [4]: 100 to 1000

Cc1cc(Nc2ncn(-c3cc(F)cc(F)c3)n2)cc(N2CCN(C(=O)OCC(F)(F)F)CC2)c1 [Compound 350, 2,2,2-trifluoroethyl 4-[3-[[1-(3,5-difluorophenyl)-1,2,4-triazol-3-yl]amino]-5-methyl-phenyl]piperazine-1-carboxylate]
fold induction at 1 µM [3]: ≤ 1 | fold induction at 10 µM [4]: ≤ 1

Cc1cc(Nc2ncn(-c3cc(F)cc(F)c3)n2)nc(C2=CCNCC2)c1 [Compound 631, N-[1-(3,5-difluorophenyl)-1,2,4-triazol-3-yl]-4-methyl-6-(1,2,3,6-tetrahydropyridin-4-yl)pyridin-2-amine]
fold induction at 1 µM [2]: 1 to 10 | fold induction at 10 µM [2]: 1 to 10

Cc1cc(Nc2ncn(-c3cc(F)cc(F)c3)n2)cc(N2CC(C)(C#N)C2)c1 [Compound 1076, 1-[3-[[1-(3,5-difluorophenyl)-1,2,4-triazol-3-yl]amino]-5-methyl-phenyl]-3-methyl-azetidine-3-carbonitrile]
fold induction at 1 µM [1]: 10 to 100 | fold induction at 10 µM [1]: ≤ 1

CCc1cc(Nc2ncn(-c3cc(F)cc(F)c3)n2)cc(N2CCN(C3(C)COC3)CC2)c1 [Compound 264, 1-(3,5-difluorophenyl)-N-[3-ethyl-5-[4-(3-methyloxetan-3-yl)piperazin-1-yl]phenyl]-1,2,4-triazol-3-amine]
fold induction at 1 µM [3]: 10 to 100 | fold induction at 10 µM [4]: 10 to 100

Cc1cc(Nc2ncn(-c3cc(F)cc(F)c3)n2)cc([C@@]2(C)CN(C3COC3)CCO2)c1 (single isomer, unassigned) [Compound 667]
fold induction at 1 µM [2]: 10 to 100 | fold induction at 10 µM [2]: 1 to 10

Cc1cc(Nc2ncn(-c3cc(F)cc(F)c3)n2)cc(N2CCC3(COC3)C2)c1 [Compound 444, 1-(3,5-difluorophenyl)-N-[3-methyl-5-(2-oxa-7-azaspiro[3.4]octan-7-yl)phenyl]-1,2,4-triazol-3-amine]
fold induction at 1 µM [2]: ≤ 1 | fold induction at 10 µM [2]: 1 to 10

Fc1cc(F)cc(-n2cnc(Nc3cc(C(F)F)cc(N4CC(N5CCOCC5)C4)n3)n2)c1 [Compound 732, 4-(difluoromethyl)-N-[1-(3,5-difluorophenyl)-1,2,4-triazol-3-yl]-6-(3-morpholinoazetidin-1-yl)pyridin-2-amine]
fold induction at 1 µM [2]: 1 to 10 | fold induction at 10 µM [2]: 1 to 10

Cc1cc(Nc2ncn(-c3cc(F)cc(F)c3)n2)cc(N2CCN3CCOCC3C2)c1 (stereo not shown) [Compound 566, N-[3-(3,4,6,7,9,9a-hexahydro-1H-pyrazino[2,1-c][1,4]oxazin-8-yl)-5-methyl-phenyl]-1-(3,5-difluorophenyl)-1,2,4-triazol-3-amine]
fold induction at 1 µM [2]: 100 to 1000 | fold induction at 10 µM [2]: 10 to 100

Source: patent US10766869B2, “Triazoles for the treatment of demyelinating dieases” (Vertex Pharmaceuticals Incorporated, priority 2015, dated 2020)
